Test results from patent US20250002866A1, “CELL CULTURE PLATFORMS, METHODS AND USES THEREOF” (ACADEMIA SINICA, priority 2021, published 2025).

Legend:
[1] = system: CTC spheroid derived from blood samples of patient A; experiment: Ex vivo drug assay on CTC spheroids of patient A; assay type: cell-based, human; conditions: for diameter and morphology of CTC spheroid: after treatment for 3 days, versus untreated mock group
Protocol: FIGS. 3A-F show the in vitro drug test results of CTC-derived spheroids and clinical-pathological results of the clinical patient. (A) The drug cytotoxicity assay results on the patient-derived CTC-originated spheroid of patient A. Six chemotherapeutic drugs were tested in this assay include oxaliplatin, docetaxel, doxorubicin, irinotecan, mitomycin-C, and 5-FU. (B and D) The image of the morphology of CTC-derived spheroids after drug panel treatment at day 3. Scale bar=20 μm. (C and E) The normalized viability of CTC-derived spheroids with indicated drug panel after 3 days of treatment. (F) The contrast-enhanced CT images before and after cisplatin/gemcitabine treatment of patient B.
In order to validate the ex vivo drug assay results, we tested single or combination therapeutic agents in CTC cultures derived from blood samples of patients. […] A designed ex vivo drug assay with both used and potential candidate drug panel including oxaliplatin, docetaxel, 5-FU, doxorubicin, mitomycin-c, and irinotecan was accomplished with time-dependent and dose-dependent manner (FIG. 3A). With regard to the cell morphology, the diameter of CTC spheroid derived from blood samples of patient A was about 30˜40 μm with an intact spheroid morphology in untreated mock group. […] The results highly match with the clinical treatment outcomes in the treatment resistance on the clinical used drugs. Therefore, doxorubicin was the related promising candidate drug among the un-used drugs (mitomycin-c and irinotecan) for next line treatment (FIG. 3B). Additional ex vivo drug test was also performed on patient B with urothelium cancer.
Spheroid formation on the culture platform of the invention. Collect the cell sample that would be used for cultivation on the culture platform of the invention in suspension medium. Add cell suspension medium into each well. The cells could be cultured under 37° C. incubator with humidified 5% CO2 atmosphere. Exchange half of the culture medium once or twice per week. The cultured spheroids (tumoroids) enables sustain in the culture platform of the invention for more than two weeks depends on the cell density and demand of the spheroid size.

cancer of patient A = experiment: Clinical treatment outcome of patient A; assay type: in vivo, human; conditions: previous clinical treatment

SMILES	diameter and morphology of CTC spheroid [1]	clinical treatment outcome (cancer of patient A)	spheroid viability ([1]; CTC spheroids of patient A under drug treatment)
O=c1[nH]cc(F)c(=O)[nH]1 [5-FU, fluorouracil]	smaller than the mock group and became leakage in appearance	progression disease	–
CC(=O)O[C@@]12CO[C@@H]1C[C@H](O)[C@@]1(C)C(=O)[C@H](O)C3=C(C)[C@@H](OC(=O)[C@H](O)[C@@H](NC(=O)OC(C)(C)C)c4ccccc4)C[C@@](O)([C@@H](OC(=O)c4ccccc4)[C@H]21)C3(C)C [docetaxel]	–	progression disease	–
COc1cccc2c1C(=O)c1c(O)c3c(c(O)c1C2=O)C[C@@](O)(C(=O)CO)C[C@@H]3O[C@H]1C[C@H](N)[C@H](O)[C@H](C)O1 [doxorubicin]	obvious broken morphology	–	lower than 4%
O=C1[O][Pt]2([NH][C@@H]3CCCC[C@H]3[NH]2)[O]C1=O [oxaliplatin]	smaller than the mock group and became leakage in appearance	progression disease	–
